The text below walks through data of US10919934B2, “Compositions and methods for managing respiratory conditions” (Emory University, priority 2017, dated 2021).

Where a SMILES comes first, the peptide text is derived from it.

The test system of series [1] is alcohol-exposed AECs. As to the kind of experiment: Transepithelial resistance (TER), alcohol-exposed AECs. The series is classed as cell-based, rat. The settings on record: 10 mM peptide, 16 h (overnight); alcohol-exposed AECs on Transwell. As to the method:
(§1) AECs isolated from control were cultured on Transwell permeable supports for 5 days and then either untreated (un), or incubated with 10 mM control peptide (con; Ac-LYQY(SEQ ID NO:35)-NH2) or a claudin-5 extracellular domain mimetic peptide (C5; Ac-EFYDP(SEQ ID NO:1)-NH2) for 16 h. The cells were examined for barrier function by transepithelial resistance (TER).
(§2) The difference between AECs isolated from control- and alcohol-fed animals (alcohol-exposed AECs) was evaluated using two different measures of barrier function: transepithelial resistance (TER) and paracellular flux to soluble tracer molecules. […] Thus, alcohol exposure has a deleterious effect on AEC tight junctions.

Series [2] deals with control AECs. Kind of series: Transepithelial resistance (TER), control AECs. The series is classed as cell-based, rat. The settings on record: 10 mM peptide, 16 h. As to the method:
as §1, §2

The test system of series [3] is control AECs. As to the kind of experiment: Paracellular flux of tracers, control AECs. The series is classed as cell-based, rat. The settings on record: 10 mM peptide, 16 h. The protocol: as §2
The subject of series [4] is alcohol-exposed AECs. As to the kind of experiment: Paracellular flux of tracers, alcohol-exposed AECs. The settings on record: 10 mM peptide, 16 h. The series is classed as cell-based, rat. The protocol:
as §2

For series [5], the system named is control AECs. The settings on record: normal AECs treated with inhibitor; cited from earlier work.
Series [6] deals with claudin-5. The settings on record: normal AECs treated with inhibitor; cited from earlier work.
Series [7] concerns claudin-1. As to the kind of experiment: Claudin-1 content, alcohol-exposed AECs. The series is classed as cell-based, rat. The settings on record: peptide-treated alcohol-exposed AECs. An excerpt: By contrast, control AECs were unaffected by the Ac-EFYDP(SEQ ID NO: 1)-NH2 peptide (FIG. 7A, C, E). A control peptide, Ac-LYQY (SEQ ID NO:35)-NH2, had no effect on AEC barrier function in either control or alcohol-exposed cells. The ability of Ac-EFYDP(SEQ ID NO: 1)-NH2 to improve the barrier function of alcohol-exposed AECs correlated with a decrease in tight-junction spike formation (FIG. 7G) and a specific decrease in total claudin-5 content (FIG. 7I). Claudin-18 and ZO-1 were unaffected (FIG. 7I) as was claudin-1.

The test system of series [8] is alcohol-exposed AECs. As to the kind of experiment: Quantification of % cells with 3 or more tight-junction spikes, alcohol-exposed AECs. The settings on record: for tight junction spikes versus control shRNA: alcohol exposed AECs transduced with lentiviral shRNA. The series is classed as cell-based, rat. As to the method: Morphologic disruption of tight junctions was not restricted to claudin-18, as claudin-5 and ZO-1 were also impaired in YFP-claudin-5-transduced AECs. To determine whether ZO-1 disruption was specifically linked to increased claudin-5, the effect of increased YFP-claudin-3 on ZO-1 localization by AECs was examined. […] In a complementary experiment, it was determined whether the ability of alcohol to induce formation of tight-junction spikes was antagonized by depleting claudin-5 using shRNA. […] Thus, claudin-5 was […] to enhance formation of tight-junction spikes.
(§3) To further confirm that spikes were sites of active claudin vesicle formation and fusion, the effects of the dynamin inhibitor Dynasore14 was examined on spike formation by alcohol-exposed AECs.

For series [9], the target named is T1, claudin-18 (Rattus norvegicus, UniProt Q5I0E5).
T1 construct: endogenous in cells; host or cells: primary alveolar epithelial cells (AECs) from alcohol-fed rats
T1 sequence (Q5I0E5 1-261): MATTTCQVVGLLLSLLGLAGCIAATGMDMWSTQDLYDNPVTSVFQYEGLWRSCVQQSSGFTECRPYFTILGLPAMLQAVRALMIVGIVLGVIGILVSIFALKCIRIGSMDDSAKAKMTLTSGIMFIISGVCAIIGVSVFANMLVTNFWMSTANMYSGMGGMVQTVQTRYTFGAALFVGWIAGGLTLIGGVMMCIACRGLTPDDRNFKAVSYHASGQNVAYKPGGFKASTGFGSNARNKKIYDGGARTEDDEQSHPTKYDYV
Kind of series: Immunoblot for claudin-18, alcohol-exposed AECs. The series is classed as cell-based. The settings on record: peptide-treated alcohol-exposed AECs. A general note: A western blot detects proteins with antibodies after separation by electrophoresis.

Series [10] has as its target T2, claudin-5 (Rattus norvegicus, UniProt Q9JKD6).
T2 construct: endogenous in cells; host or cells: primary alveolar epithelial cells (AECs) from alcohol-fed rats
T2 sequence (Q9JKD6 1-218): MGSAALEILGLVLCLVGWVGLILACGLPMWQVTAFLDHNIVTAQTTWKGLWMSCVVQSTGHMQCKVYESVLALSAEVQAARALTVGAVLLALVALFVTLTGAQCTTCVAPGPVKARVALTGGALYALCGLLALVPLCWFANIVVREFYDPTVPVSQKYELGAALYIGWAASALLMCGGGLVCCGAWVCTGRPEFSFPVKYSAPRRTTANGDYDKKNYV
As to the kind of experiment: Immunoblot for claudin-5, alcohol-exposed AECs. The series is classed as cell-based. The settings on record: peptide-treated cells from alcohol-fed rats; P=0.042 versus untreated, P=0.016 versus control.

Series [11] concerns ZO-1. As to the kind of experiment: Immunoblot for ZO-1, alcohol-exposed AECs. The series is classed as cell-based, rat. The settings on record: peptide-treated alcohol-exposed AECs.
Series [12] deals with claudin-3 and claudin-4. The settings on record: cited from earlier work.
In series [13] the test system is alcohol-exposed AECs. As to the kind of experiment: Live-cell imaging of YFP-claudin-18 in alcohol-exposed AECs. The series is classed as cell-based, rat. The settings on record: Dynasore-treated alcohol-exposed AECs.
Excerpt: as §3

Series [14] has as its system control AECs. Kind of series: Quantification of % cells with 3 or more tight-junction spikes, control AECs. The settings on record: Dynasore treatment. The series is classed as cell-based, rat.
Excerpt: as §3

“Ac-LYQY(SEQ ID NO:35)-NH2 (Ac-LYQY-NH2) [Ac-LYQY (SEQ ID NO:35)-NH2, control peptide, reference compound]”: the TER result in [1] and in series [2] was “no effect” in each case. The “paracellular flux of 10 kDa Texas Red dextran” value in [3] and in [4] was “no effect” each time. Besides, the “paracellular flux of calcein” value in [3] and in [4] was “no effect” throughout.
On to `Cc1ccc2nc(NCCN)c3ncc(C)n3c2c1` [BMS-345541], for which, in series [5], the “formation of tight-junction spikes” value is “increased”. Also, the claudin-5 expression entry in [6] is listed as “increased”.
For `CC(=O)NC(CCC(=O)O)C(=O)NC(Cc1ccccc1)C(=O)NC(Cc1ccc(O)cc1)C(=O)NC(CC(=O)O)C(=O)N1CCCC1C(N)=O` (stereo not shown) [Ac-EFYDP(SEQ ID NO: 1)-NH2, Ac-EFYDP(SEQ ID NO:1)-NH2] (Ac-EFYDP-NH2; configuration not given here), the claudin-1 content entry in series [7] is listed as “unaffected”. For the same molecule, the TER result is “increase” in series [1] and “unaffected” in series [2]. Also, the tight-junction spike formation result in [8] (peptide-treated alcohol-exposed AECs, P<0.001 versus untreated and control peptide) is “decrease”. The “claudin-18 content (immunoblot)” value in series [9] was “unaffected”. For the same molecule, in series [10], the “total claudin-5 content (immunoblot)” value was “significant and specific decrease”. Moreover, the figures for the “paracellular flux of 10 kDa Texas Red dextran” value in series [3] and in series [4] were “unaffected” and “decrease”, respectively. Besides, the “paracellular flux of calcein” value in series [3] is given as “unaffected”; in series [4], “decrease”. Moreover, the “ZO-1 content (immunoblot)” value in series [11] is reported as “unaffected”.
For the molecule Ac-DFYNP-NH2, in series [12], the “effectiveness of D-amino acid version relative to corresponding L-amino acid version” value is 10-100 fold.
Turning to `O=C(NN=Cc1ccc(O)c(O)c1)c1cc2ccccc2cc1O` [Dynasore, N′-(3,4-dihydroxybenzylidene)-3-hydroxy-2-naphthohydrazide], the “% cells containing 3 or more tight junction spikes oriented towards the nucleus” value in [8] (160 μM for 4 h, cells from alcohol fed rats, P=0.002) is “significantly decreased”. Besides, in series [13], the “punctate YFP-claudin-18 labelling” value is listed as “increase”. Further, in series [14], the “spike formation by control cells” value is reported as “did not have a significant effect”.

B1: claudin-5 shRNA1: lentiviral short hairpin RNA targeting claudin-5, 616-624, SEQ ID NO: 27/28 (nucleic acid)
chain 1: CCCCCCAACGGCGATTACGACAATTCAAGAGATTGTCGTAATCGCCGTTGGTTTTTGG
chain 2: CCAAAAACCAACGGCGATTACGACAATCTCTTGAATTGTCGTAATCGCCGTTGGGGGG
Regarding B1, in series [8], the “tight junction spikes versus control shRNA” value is on record as “significantly fewer”.

B2: shRNA2: lentiviral short hairpin RNA targeting claudin-5, 1594-1612, SEQ ID NO: 29/30 (nucleic acid)
chain 1: CCCCCCACCAAACTGCCGCTAACTTCAAGAGAGTTAGCGGCAGTTTGGTGGTTTTTGG
chain 2: CCAAAAACCACCAAACTGCCGCTAACTCTCTTGAAGTTAGCGGCAGTTTGGTGGGGGG
B2: the “tight junction spikes versus control shRNA” value in series [8] was “trend towards decreased spikes”.
